Test results: patent US12116363B2, “Combinations for immune-modulation in cancer treatment” (SENHWA BIOSCIENCES, INC., priority 2018, dated 2024)

Columns and labels:
[1] = test system: tumor-infiltrating T cells and MDSC in 4T1 tumor microenvironment; test: Flow cytometry of immune cells in 4T1 tumors; format: in vivo, Balb/C mice; conditions: immune competent mice
Method: The composition of immune cells was analyzed with multi-color flow cytometry (FACS) at days when tumor reaches 800-1000 mm^3. Tumors were treated with dissociation media (Miltenyi, CAT #130-096-730) and resuspend in FACS buffer. T cell infiltration was measured by the investigating the number of T cells in the tumor samples. CD4 T, CD8 T, activated CD4 T, and activated CD8 T cells were identified by cell surface marker as CD45^+CD3^+CD4^+, CD45^+CD3^+CD8^+, CD45^+CD3^+CD4^+CD69^+, and CD45^+CD3^+CD8^+CD69^+, respectively. The absolute count of cells was measured by normalized number of cells with counting beads (eBiosciences CAT #01-1234-42) and the weight of each tumor sample. Absolute count of tumor-infiltrating T cells was calculated by the formula as Absolute count (cells/mg)=[(cell count×eBead Volume)/(eBead count×tumor weight)]×eBead concentration.

4T1 breast cancer cells = test: Tumor growth inhibition in immune-competent syngeneic mouse model 4T1; format: in vivo, Balb/C mice; conditions: 14 day; CX-4945 75 mg/kg oral BID Day 0-13; cisplatin 6 mg/kg i.p. QW Day 0 and 7
Method: Efficacy studies of tumor growth inhibition and T cells activities was conducted in an immune-competent syngeneic mouse models, 4T1, that is known to be resistant to the treatment of immune checkpoint inhibitors such as anti-PD1, anti-PD-L1, and anti-CTLA4. The resistance to these antagonists that modulates T cell […] signaling indicate a high immune suppressive tumor microenvironment.
This series of studies were conducted in Balb/C mice that are six to eight weeks old. Breast cancer cells, 4T1, were injected subcutaneously with 3×10^5 cells in 0.1 ml PBS to the right flank of the mice. Mice were randomized for treatment when the mean tumor size reached approximately 80-120 mm^3. Treatment were administered with CX-4945 and/or cisplatin at the doses and schedules described in Table 1. […] Tumors were measured two dimensionally (width×length) with an electronic caliper and tumor volume was calculated with the formula V=(L×W×W)/2, where V is tumor volume, L is tumor length (the longest tumor dimension) and W is tumor width (the longest tumor dimension perpendicular to L). The mice were monitored twice weekly and euthanized when tumor sizes reached approximately 800-1000 mm^3 for flow cytometry analysis.
Anti-tumor activities were measured as % Tumor Growth Inhibition (% TGI) at the time of euthanized. TGI was calculated as % TGI=100×(1−T/C). […]

[2] = test system: A2780 ovarian cancer xenografts; test: A2780 ovarian tumor xenograft model, gemcitabine and CX-4945; format: in vivo; conditions: gemcitabine 60 mg/kg i.v., CX-4945 100 mg/kg oral
[3] = test system: Colo-205 colorectal cancer model; test: Colo-205 colorectal cancer model, gemcitabine and CX-4945; format: in vivo; conditions: Colo-205 model (FIG. 2)
Description: The Colo-205 colorectal cancer model is resistant to each individual agent alone (FIG. 2).

Compound	number of MDSC systemically or locally in the tumor microenvironment [1]	% TGI (4T1 breast cancer cells)	% TGI [2]	Median TTE days [2]	delay in time to endpoint (TTE analysis) [2]	tumor growth [3]
O=C(O)c1ccc2c(c1)nc(Nc1cccc(Cl)c1)c1ccncc12 [CX-4945, silmitasertib]	does not decrease	18%	20%	18 days	significant delay in time to endpoint	resistant
N.N.[Cl][Pt][Cl] [Cisplatin, cisplatin, reference compound]	–	45%	–	–	–	–
Nc1ccn([C@@H]2O[C@H](CO)[C@@H](O)C2(F)F)c(=O)n1 [Gemcitabine, gemcitabine, reference compound]	–	–	68%	28 days	significant delay in time to endpoint	resistant
